What was measured:
Format in all cases: in vivo, BALB/c mice
[1] = test system: NY p81 specific CD8+ T cells; assay: Specific CD8+ T cell induction in mice, intracellular cytokine staining (NY p81 epitope); settings: FIG. 6; comparing one to six tyrosines
Source text: A long chain peptide antigen ESO1 LP (native type) (Sequence No. 16) and a long chain peptide antigen ESO1 LP (Y6) (Sequence No. 17), both containing a mouse CD8+ T cell epitope sequence (NY p81 or NY p82) and a mouse CD4+ T cell epitope sequence (NY p91) that are derived from human NY-ESO-1 antigen, were synthesized. As the interepitope sequence between epitopes, the native amino acid sequence of NY-ESO-1 was retained in the ESO1 LP (native type) and the sequence of six consecutive tyrosines (Y6) was used in the ESO1 LP (Y6). Vaccines containing the respective long chain peptide antigens were administered to mice in the same manner as in FIG. 1 and the frequencies of CD8+ T cells and CD4+ T cells specific to the respective epitope sequences were measured by the intracellular cytokine staining method.
(§1) Long chain peptide antigens MEN, all containing three types of mouse CD8+ T cell epitope sequences (MA p265 (Sequence No. 27), NY p81 (Sequence No. 29), and mERK2 9m (Sequence No. 28)), were synthesized. The interepitope sequences between the respective epitopes were one to six consecutive tyrosines (Sequence Nos. 1 and 9-12). Vaccines containing the respective long chain peptide antigens were administered to mice in the same manner as in FIG. 1 and the frequencies of CD8+ T cells specific to the respective epitope sequences were measured by the intracellular cytokine staining method.
as §1, with “five” for “one”, “ten” for “six”, “13-15).” for “9-12).”, “method. […]” for “method.”

[2] = test system: F4/80+ cells (macrophages); assay: Uptake of FAM-labeled long chain peptide antigens in individual animals, regional lymph node macrophages; settings: FIG. 9, complexed with CHP, subcutaneous, 16 hours after administration
Experimental: The same FAM-labeled long chain peptide antigens as those in FIG. 8 were complexed with CHP and administered subcutaneously to mice. After 16 hours, cells were collected from a regional lymph node of the administration site, and the fluorescence uptakes into dendritic cells and mouse macrophages were measured by flow cytometry with the P4 fraction in the figure being deemed to correspond to the dendritic cells and the P5 fraction in the figure being deemed to correspond to the macrophages.
A test of uptake of long chain peptide antigens by antigen-presenting cells in individual animals was performed as follows. Each long chain peptide was fluorescence-labeled, complexed with a CHP nanogel, administered subcutaneously to BALB/c mice. 16 hours after administration, cells were collected from lymph nodes and after staining with the anti-CD11c antibody and the anti-F4/80 antibody, the uptake of the fluorescence-labeled long chain peptide antigens by CD11c^+ cells (dendritic cells) and F4/80^+ cells (macrophages) was analyzed by flow cytometry.

[3] = test system: mERK2 9m specific CD8+ T cells; assay: Specific CD8+ T cell induction in mice, intracellular cytokine staining (mERK2 9m epitope)
Experimental: as §1
as §1, with “five” for “one”, “ten” for “six”, “13-15).” for “9-12).”
Each CHP/long chain peptide complex as the vaccine and the CpG oligo DNA as the adjuvant were administered at the same time to a mouse. Administration was performed by subcutaneous injection on the back of the mouse. As the dose, the CHP/long chain peptide complex was administered at 0.05 to 0.1 mg equivalent of long chain peptide per administration. The CpG oligo DNA was administered at 0.05 mg per administration. One week after the final administration, spleen cells were separated by the following procedure from each vaccine-administered mouse. The spleen was isolated from the mouse and removed of blood by rinsing with RPMI1640 medium. After the spleen was triturated using a glass slide, the released cells were collected in RPMI1640 medium. After centrifuging (400×g, 5 minutes, 4° C.), the supernatant was removed and the cells were treated for 1 minute by adding 2 mL of ACK solution. […]

Sequence: SNPARYEFLYYYYYYQYIHSANVLYYYYYYRGPESRLL (Long chain peptide antigen, containing three types of mouse CD8+ T cell epitope sequences (MA p265, NY p81, and mERK2 9m)) [MEN(Y6)]
- induction of specific CD8+ T cells, NY p81 (third epitope) [1]: highest
- fluorescence uptake into macrophages of the regional lymph node [2]: clearly observed
- induction of specific CD8+ T cells, mERK2 9m (second epitope) ([3]; FIG. 6, comparing one to six tyrosines): observed to some degree
- induction of specific CD8+ T cells, mERK2 9m (second epitope) ([3]; FIG. 7, comparing five to ten tyrosines): highest
